Reference: PubChem BioAssay (NCI)
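Five compound concentrations were applied to cells in 96-well plates for 48 hours; endpoints were derived by simple linear interpolation of the resulting dose-response curve. Abbreviation: GI50, concentration required for 50% inhibition of growth. TGI marks complete inhibition of growth.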

How the values were obtained:
Assay in all cases: inhibition of tumour cell growth, NCI panel, 48 h
[1] = system: KM20L2 colon
[2] = system: IGROV1 ovarian
[3] = system: SF-268 CNS
[4] = system: SK-OV-3 ovarian
[5] = system: TK-10 renal
[6] = system: SK-MEL-5 melanoma
[7] = system: UACC-62 melanoma
[8] = system: SW-620 colon
[9] = system: HCC-2998 colon
[10] = system: HOP-62 NSCLC
[11] = system: SK-MEL-2 melanoma
[12] = system: 786-0 renal
[13] = system: U251 CNS
[14] = system: SF-539 CNS
[15] = system: DMS 114 small cell lung
[16] = system: CAKI-1 renal
[17] = system: RXF 393 renal
[18] = system: UACC-257 melanoma
[19] = system: HOP-18 NSCLC
[20] = system: SK-MEL-28 melanoma
[21] = system: DMS 273 small cell lung
[22] = system: DLD-1 colon
[23] = system: EKVX NSCLC
[24] = system: HCT-15 colon
[25] = system: OVCAR-3 ovarian
[26] = system: SNB-75 CNS
[27] = system: M19-MEL melanoma
[28] = system: COLO 205 colon
[29] = system: HL-60(TB) leukemia
[30] = system: A549 NSCLC
[31] = system: HT29 colon
[32] = system: OVCAR-5 ovarian
[33] = system: LOX IMVI melanoma
[34] = system: KM12 colon
[35] = system: A498 renal
[36] = system: MALME-3M melanoma
[37] = system: SN12C renal
[38] = system: NCI-H460 lung
[39] = system: OVCAR-8 ovarian
[40] = system: K-562 leukemia
[41] = system: SNB-19 CNS
[42] = system: MOLT-4 leukemia
[43] = system: XF 498 CNS
[44] = system: SNB-78 CNS
[45] = system: NCI-H23 lung
[46] = system: UO-31 renal
[47] = system: LXFL 529 NSCLC
[48] = system: M14 melanoma
[49] = system: SF-295 CNS
[50] = system: OVCAR-4 ovarian
[51] = system: CCRF-CEM leukemia
[52] = system: RPMI-8226 leukemia
[53] = system: ACHN renal
[54] = system: HCT-116 colon
[55] = system: HOP-92 NSCLC
[56] = system: NCI-H522 lung
[57] = system: NCI-H226 lung

## [C-]#[O+].[C-]#[O+].[C-]#[O+].[C-]#[O+].[O-]C(c1ccccc1[PH+]1OC(C(F)(F)F)(C(F)(F)F)c2ccccc21)(C(F)(F)F)C(F)(F)F.[Re] (stereo not given)
[1]
  GI50: 2.2 µM
  TGI: 13.7 µM
[2]
  GI50: 3.46 µM
  TGI: 14.8 µM
[3]
  GI50: 6.18 µM
  TGI: 23.5 µM
[4]
  GI50: 14.7 µM
  TGI: 30.2 µM
[5]
  GI50: 7.26 µM
  TGI: 21.7 µM
[6]
  GI50: 6.33 µM
  TGI: 20.6 µM
[7]
  GI50: 2.12 µM
  TGI: 4.92 µM
[8]
  GI50: 3.87 µM
  TGI: 13.5 µM
[9]
  GI50: 5.11 µM
  TGI: 18.3 µM
[10]
  GI50: 7.54 µM
  TGI: 24 µM
[11]
  GI50: 4.88 µM
  TGI: 18.2 µM
[12]
  GI50: 4.26 µM
  TGI: 15.3 µM
[13]
  GI50: 3.05 µM
  TGI: 14.1 µM
[14]
  GI50: 2.85 µM
  TGI: 8.68 µM
[15]
  GI50: 2.78 µM
  TGI: 8.82 µM
[16]
  GI50: 5.45 µM
  TGI: 20.8 µM
[17]
  GI50: 1.9 µM
  TGI: 4.04 µM
[18]
  GI50: 2.26 µM
  TGI: 4.28 µM
[19]
  GI50: 7.89 µM
  TGI: 21.1 µM
[20]
  GI50: 2.56 µM
  TGI: 6.8 µM
[21]
  GI50: 2.93 µM
  TGI: 9.78 µM
[22]
  GI50: 5.1 µM
  TGI: 21.1 µM
[23]
  GI50: 7.51 µM
  TGI: 25.4 µM
[24]
  GI50: 5.72 µM
  TGI: 20.6 µM
[25]
  GI50: 2.77 µM
  TGI: 7.58 µM
[26]
  GI50: 4.65 µM
  TGI: 15.6 µM
[27]
  GI50: 3.59 µM
  TGI: 14.4 µM
[28]
  GI50: 2.32 µM
  TGI: 5.74 µM
[29]
  GI50: 2.81 µM
  TGI: 11.4 µM
[30]
  GI50: 4.56 µM
  TGI: 19.2 µM
[31]
  GI50: 3.6 µM
  TGI: 12.2 µM
[32]
  GI50: 5 µM
  TGI: 18.6 µM
[33]
  GI50: 2.59 µM
  TGI: 6.2 µM
[34]
  GI50: 3.9 µM
  TGI: 12.5 µM
[35]
  GI50: 2.5 µM
  TGI: 8.19 µM
[36]
  GI50: 2.33 µM
  TGI: 5.07 µM
[37]
  GI50: 3.63 µM
  TGI: 13.4 µM
[38]
  GI50: 2.92 µM
  TGI: 8.97 µM
[39]
  GI50: 3.65 µM
  TGI: 15.6 µM
[40]
  GI50: 2.69 µM
  TGI: 11.1 µM
[41]
  GI50: 11.5 µM
  TGI: 33.5 µM
[42]
  GI50: 2.5 µM
  TGI: 6.39 µM
[43]
  GI50: 2.96 µM
  TGI: 10.3 µM
[44]
  GI50: 3.7 µM
  TGI: 19.5 µM
[45]
  GI50: 2.36 µM
  TGI: 5.25 µM
[46]
  GI50: 2.58 µM
  TGI: 7.02 µM
[47]
  GI50: 2.01 µM
  TGI: 4.26 µM
[48]
  GI50: 1.99 µM
  TGI: 4.01 µM
[49]
  GI50: 4.97 µM
  TGI: 18.3 µM
[50]
  GI50: 2.88 µM
  TGI: 8.53 µM
[51]
  GI50: 2.39 µM
  TGI: 5.83 µM
[52]
  GI50: 2.89 µM
  TGI: 12.5 µM
[53]
  GI50: 3.75 µM
  TGI: 12.9 µM

## Cc1cc(C)nc(NS(=O)(=O)c2ccc(NC(=O)c3cccc4c(Nc5ccc(S(=O)(=O)Nc6nc(C)cc(C)n6)cc5)c5ccc(Cl)cc5nc34)cc2)n1
[1]
  TGI: > 100 µM
[2]
  TGI: > 100 µM
[3]
  TGI: > 100 µM
[4]
  TGI: 77.1 µM
[5]
  TGI: > 100 µM
[6]
  TGI: 42.7 µM
[7]
  TGI: 56.2 µM
[8]
  TGI: > 100 µM
[9]
  TGI: > 100 µM
[10]
  TGI: 71.9 µM
[54]
  TGI: > 100 µM
[11]
  TGI: > 100 µM
[12]
  TGI: > 100 µM
[55]
  TGI: 62.6 µM
[13]
  TGI: > 100 µM
[14]
  TGI: > 100 µM
[15]
  TGI: 79.8 µM
[16]
  TGI: 77.1 µM
[17]
  TGI: > 100 µM
[56]
  TGI: 54.7 µM
[18]
  TGI: 62.9 µM
[19]
  TGI: > 100 µM
[20]
  TGI: > 100 µM
[21]
  TGI: > 100 µM
[22]
  TGI: > 100 µM
[23]
  TGI: > 100 µM
[24]
  TGI: > 100 µM
[25]
  TGI: 58.3 µM
[26]
  TGI: 67.9 µM
[27]
  TGI: > 100 µM
[28]
  TGI: > 100 µM
[30]
  TGI: > 100 µM
[31]
  TGI: > 100 µM
[32]
  TGI: > 100 µM
[33]
  TGI: > 100 µM
[34]
  TGI: > 100 µM
[35]
  TGI: > 100 µM
[36]
  TGI: 50.3 µM
[37]
  TGI: > 100 µM
[38]
  TGI: > 100 µM
[39]
  TGI: > 100 µM
[40]
  TGI: 88.6 µM
[41]
  TGI: > 100 µM
[42]
  TGI: > 100 µM
[43]
  TGI: 59.8 µM
[44]
  TGI: > 100 µM
[45]
  TGI: > 100 µM
[46]
  TGI: 82 µM
[47]
  TGI: > 100 µM
[48]
  TGI: > 100 µM
[49]
  TGI: > 100 µM
[50]
  TGI: > 100 µM
[51]
  TGI: 79.8 µM
[52]
  TGI: 91.9 µM
[53]
  TGI: > 100 µM

## O=C1Nc2ccccc2C12CCCC2
[1]
  TGI: > 100 µM
[2]
  TGI: > 100 µM
[3]
  TGI: > 100 µM
[4]
  TGI: > 100 µM
[5]
  TGI: > 100 µM
[6]
  TGI: > 100 µM
[7]
  TGI: > 100 µM
[8]
  TGI: > 100 µM
[9]
  TGI: > 100 µM
[10]
  TGI: > 100 µM
[54]
  TGI: > 100 µM
[11]
  TGI: > 100 µM
[12]
  TGI: > 100 µM
[13]
  TGI: > 100 µM
[14]
  TGI: > 100 µM
[15]
  TGI: > 100 µM
[16]
  TGI: > 100 µM
[17]
  TGI: > 100 µM
[56]
  TGI: > 100 µM
[18]
  TGI: > 100 µM
[19]
  TGI: > 100 µM
[20]
  TGI: > 100 µM
[21]
  TGI: > 100 µM
[22]
  TGI: > 100 µM
[23]
  TGI: > 100 µM
[24]
  TGI: > 100 µM
[25]
  TGI: > 100 µM
[26]
  TGI: > 100 µM
[27]
  TGI: > 100 µM
[28]
  TGI: > 100 µM
[29]
  TGI: > 100 µM
[30]
  TGI: > 100 µM
[31]
  TGI: > 100 µM
[34]
  TGI: > 100 µM
[35]
  TGI: > 100 µM
[36]
  TGI: > 100 µM
[37]
  TGI: > 100 µM
[38]
  TGI: > 100 µM
[39]
  TGI: > 100 µM
[40]
  TGI: > 100 µM
[41]
  TGI: > 100 µM
[42]
  TGI: > 100 µM
[43]
  TGI: > 100 µM
[44]
  TGI: > 100 µM
[45]
  TGI: > 100 µM
[46]
  TGI: > 100 µM
[47]
  TGI: > 100 µM
[48]
  TGI: > 100 µM
[49]
  TGI: > 100 µM
[50]
  TGI: > 100 µM
[51]
  TGI: > 100 µM
[52]
  TGI: > 100 µM
[53]
  TGI: > 100 µM

## CCOc1ccccc1N1C(=O)C(=O)C(c2nc3ccccc3s2)C(=O)C1=O
[1]
  TGI: > 100 µM
[2]
  TGI: > 100 µM
[3]
  TGI: > 100 µM
[4]
  TGI: > 100 µM
[5]
  TGI: > 100 µM
[7]
  TGI: > 100 µM
[8]
  TGI: > 100 µM
[9]
  TGI: > 100 µM
[10]
  TGI: > 100 µM
[54]
  TGI: > 100 µM
[11]
  TGI: > 100 µM
[12]
  TGI: 20.8 µM
[55]
  TGI: > 100 µM
[13]
  TGI: > 100 µM
[14]
  TGI: > 100 µM
[15]
  TGI: > 100 µM
[16]
  TGI: > 100 µM
[17]
  TGI: > 100 µM
[18]
  TGI: > 100 µM
[19]
  TGI: 69.8 µM
[20]
  TGI: > 100 µM
[21]
  TGI: > 100 µM
[22]
  TGI: > 100 µM
[23]
  TGI: > 100 µM
[24]
  TGI: > 100 µM
[25]
  TGI: 44.2 µM
[26]
  TGI: > 100 µM
[27]
  TGI: > 100 µM
[28]
  TGI: > 100 µM
[57]
  TGI: > 100 µM
[30]
  TGI: > 100 µM
[31]
  TGI: > 100 µM
[32]
  TGI: > 100 µM
[33]
  TGI: > 100 µM
[34]
  TGI: > 100 µM
[35]
  TGI: 39 µM
[36]
  TGI: > 100 µM
[37]
  TGI: > 100 µM
[38]
  TGI: > 100 µM
[39]
  TGI: > 100 µM
[41]
  TGI: > 100 µM
[43]
  TGI: > 100 µM
[44]
  TGI: > 100 µM
[45]
  TGI: > 100 µM
[46]
  TGI: > 100 µM
[47]
  TGI: > 100 µM
[48]
  TGI: > 100 µM
[49]
  TGI: > 100 µM
[50]
  TGI: 17.8 µM
[52]
  TGI: > 100 µM
[53]
  TGI: 54 µM
